These compounds were tested against T1, porcine gastric H+/K+-ATPase (Sus scrofa, UniProt P19156) (assay: Ion-tight porcine gastric H+/K+-ATPase inhibition). Conditions: ion-tight gastric vesicles, 150 mM KCl, valinomycin, pH 7.4, 37° C.
T1 construct: prepared from mucous membrane in fresh porcine stomachs by homogenization; from tissue; host or cells: mucous membrane of fresh porcine stomachs (gastric vesicles)
Assay type: biochemical
Procedure: The porcine gastric vesicles for Porcine gastric H^+/K^+-ATPase inhibition assays were prepared from mucous membrane in fresh porcine stomachs by homogenization with a tight-fitted polytetrafluoroethylene (Teflone®) homogenizer in 0.25 M sucrose at 4° C. The crude pellet was removed with centrifugation at 20,000 g for 30 min. Then supernatant was centrifuged at 100,000 g for 30 min. The resulting pellet was re-suspended in 0.25 M sucrose, and then subjected to density gradient centrifugation at 132,000 g for 90 min. The gastric vesicles were collected from interface on 0.25 M sucrose layer containing 7% Ficoll™ PM400(Amersham Biosciences). This procedure was performed in a cold room.
Ion-tight porcine gastric H^+/K^+-ATPase inhibition was measured according to the modified method described in Biochemical Pharmacology, 1988, 37, 2231-2236.
The isolated vesicles were kept in deep-freezer until use. For enzyme assay, vesicles were diluted with 3 mM MgSO4 containing 5 mM Tris (pH 7.4 at 37° C).
Enzyme reaction was performed incubating 150 mM KCl, 3 mM Na2ATP, 3 mM MgSO4, 15 μM valinomycin and 3.0 μg of vesicles for 30 minutes at 37° C. in a final 60 μl of reaction mixture (5 mM Tris, pH 7.4) with or without the test compound. Enzyme reaction was stopped by adding 10% SDS. Released inorganic phosphate from ATP was detected by incubating with mixture of 1 part of 35 mM ammonium molybdate tetrahydrate in 15 mM Zinc acetate hydrate and 4 parts of 10% ascorbic acid (pH 5.0), resulting in phosphomolybdate, which has optical density at 750 nm.

T1 sequence (P19156 2-1034 limits assumed): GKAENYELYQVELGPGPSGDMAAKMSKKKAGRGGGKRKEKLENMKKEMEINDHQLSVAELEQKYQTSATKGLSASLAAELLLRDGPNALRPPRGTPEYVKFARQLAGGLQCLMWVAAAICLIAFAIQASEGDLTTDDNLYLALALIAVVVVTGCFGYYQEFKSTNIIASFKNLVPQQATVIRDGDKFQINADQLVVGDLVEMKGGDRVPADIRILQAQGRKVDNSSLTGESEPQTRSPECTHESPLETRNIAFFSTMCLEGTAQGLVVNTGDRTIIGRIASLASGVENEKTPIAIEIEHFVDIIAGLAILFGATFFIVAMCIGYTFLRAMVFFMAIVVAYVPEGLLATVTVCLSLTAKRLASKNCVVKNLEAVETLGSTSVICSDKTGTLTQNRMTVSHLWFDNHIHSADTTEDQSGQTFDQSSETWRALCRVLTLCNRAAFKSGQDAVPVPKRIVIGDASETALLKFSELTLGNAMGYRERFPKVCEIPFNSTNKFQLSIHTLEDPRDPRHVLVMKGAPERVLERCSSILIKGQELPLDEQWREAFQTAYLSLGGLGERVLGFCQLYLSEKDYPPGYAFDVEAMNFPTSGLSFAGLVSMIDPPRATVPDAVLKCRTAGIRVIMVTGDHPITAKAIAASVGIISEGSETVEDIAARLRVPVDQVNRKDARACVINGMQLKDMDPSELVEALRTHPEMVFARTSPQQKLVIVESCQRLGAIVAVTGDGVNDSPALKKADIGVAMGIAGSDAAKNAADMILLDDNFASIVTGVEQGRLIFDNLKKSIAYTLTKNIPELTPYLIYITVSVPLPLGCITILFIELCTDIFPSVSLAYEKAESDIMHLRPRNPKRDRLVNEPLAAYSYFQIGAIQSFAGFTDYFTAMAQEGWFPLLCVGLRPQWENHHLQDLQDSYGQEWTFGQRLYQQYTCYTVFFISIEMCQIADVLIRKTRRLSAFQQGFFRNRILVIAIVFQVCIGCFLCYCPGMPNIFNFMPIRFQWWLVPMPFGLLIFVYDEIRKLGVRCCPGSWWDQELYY
T1 sequence (P18434 whole entry partner): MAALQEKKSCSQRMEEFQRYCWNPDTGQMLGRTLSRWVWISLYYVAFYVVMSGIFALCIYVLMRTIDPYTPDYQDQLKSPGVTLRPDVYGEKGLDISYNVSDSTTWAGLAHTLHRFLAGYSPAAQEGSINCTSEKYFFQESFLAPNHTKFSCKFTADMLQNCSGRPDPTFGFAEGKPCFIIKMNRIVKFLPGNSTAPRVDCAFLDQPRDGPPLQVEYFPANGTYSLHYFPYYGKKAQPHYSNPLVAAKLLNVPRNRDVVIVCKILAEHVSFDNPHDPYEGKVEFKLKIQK

| Compound | IC50 [nM] |
| --- | --- |
| Cc1nc2c(OC3CCOc4cc(F)cc(F)c43)cc(C(=O)N3CCC3)cc2n1C (single isomer, unassigned; (-)) [Example 23, (−)-6-(Azetidin-1-ylcarbonyl)-4-[(5,7-difluoro-3,4-dihydro-2H-chromen-4-yl)oxy]-1,2-dimethyl-1H-benzimidazole] | 440 |
| Cc1nc2c(OC3CCOc4cc(F)cc(F)c43)cc(C(=O)N3CC(C)(O)C3)cc2n1C (stereo not drawn) [Example 26, 1-({4-[(5,7-Difluoro-3,4-dihydro-2H-chromen-4-yl)oxy]-1,2-dimethyl-1H-benzimidazol-6-yl}carbonyl)-3-methylazetidin-3-ol] | 480 |
| Cc1cccc2c1C(Oc1cc(C(=O)N(C)C)cc3c1nc(C)n3C)CCO2 (stereo not drawn) [Example 8, N,N,1,2-Tetramethyl-4-[(5-methyl-3,4-dihydro-2H-chromen-4-yl)oxy]-1H-benzimidazole-6-carboxamide] | 180 |
| Cc1nc2c(OC3CCOc4cc(F)cc(F)c43)cc(C(=O)N(C)C)cc2n1C (single isomer, unassigned; (-)) [Example 6, (−)-4-[(5,7-Difluoro-3,4-dihydro-2H-chromen-4-yl)oxy]-N,N,1,2-tetramethyl-1H-benzimidazole-6-carboxamide] | 210 |
| Cc1nc2c(OC3CCOc4ccccc43)cc(C(=O)N3CC[C@@H](O)C3)cc2n1C (stereo partly drawn) [Example 13, (3R)-1-{[4-(3,4-Dihydro-2H-chromen-4-yloxy)-1,2-dimethyl-1H-benzimidazol-6-yl]carbonyl}pyrrolidin-3-ol] | 120 |
| Cc1nc2c(OC3CCOc4ccccc43)cc(C(=O)N3CCN(C)CC3)cc2n1C (stereo not drawn) [Example 15, 4-(3,4-Dihydro-2H-chromen-4-yloxy)-1,2-dimethyl-6-[(4-methylpiperazin-1-yl)carbonyl]-1H-benzimidazole] | 950 |
| Cc1nc2c(OC3CCOc4cc(F)cc(F)c43)cc(C(=O)N3CCCC3)cc2n1C (stereo not drawn) [Example 25, 4-[(5,7-Difluoro-3,4-dihydro-2H-chromen-4-yl)oxy]-1,2-dimethyl-6-(pyrrolidin-1-ylcarbonyl)-1H-benzimidazole] | 590 |
| Cc1nc2c(OC3CCOc4cc(F)ccc43)cc(C(=O)N(C)C)cc2n1C (single isomer, unassigned; (-)) [Example 3, (−)-4-[(7-Fluoro-3,4-dihydro-2H-chromen-4-yl)oxy]-N,N,1,2-tetramethvl-1H-benzimidazole-6-carboxamide] | 440 |
| Cc1nc2c(OC3CCOc4ccccc43)cc(C(=O)N3CC[C@H](O)C3)cc2n1C (stereo partly drawn) [Example 12, (3S)-1-{[4-(3,4-Dihydro-2H-chromen-4-yloxy)-1,2-dimethyl-1H-benzimidazol-6-yl]carbonyl}pyrrolidin-3-ol] | 670 |
| CNC(=O)c1cc(OC2CCOc3cc(F)cc(F)c32)c2nc(C)n(C)c2c1 (racemic) [Example 19, 4-[(5,7-Difluoro-3,4-dihydro-2H-chromen-4-yl)oxy]-N,1,2-trimethyl-1H-benzimidazole-6-carboxamide] | 680 |
| CNC(=O)c1cc(OC2CCOc3cc(F)cc(F)c32)c2nc(C)n(C)c2c1 (single isomer, unassigned; (-)) [Example 20, (−)-4-[(5,7-Difluoro-3,4-dihydro-2H-chromen-4-yl)oxy]-N,1,2-trimethyl-1H-benzimidazole-6-carboxamide] | 610 |
| Cc1nc2c(OC3COCc4ccccc43)cc(C(=O)N(C)C)cc2n1C (stereo not drawn) [Example 10, 4-(3,4-Dihydro-1H-isochromen-4-yloxy)-N,N,1,2-tetramethvl-1H-benzimidazole-6-carboxamide] | 320 |
| Cc1nc2c(OC3CCOc4ccccc43)cc(C(=O)N(C)CCO)cc2n1C (stereo not drawn) [Example 11, 4-(3,4-Dihydro-2H-chromen-4-yloxy)-N-(2-hydroxyethyl)-N,1,2-trimethyl-1H-benzimidazole-6-carboxamide] | 430 |
| Cc1nc2c(OC3CCOc4ccccc43)cc(C(=O)N(C)C)cc2n1C (stereo not drawn) [Example 1, 4-(3,4-Dihydro-2H-chromen-4-yloxy)-N,N,1,2-tetramethyl-1H-benzimidazole-6-carboxamide] | 560 |
| Cc1nc2c(OC3CCOc4cccc(F)c43)cc(C(=O)N(C)C)cc2n1C (single isomer, unassigned; (+)) [Example 18, (+)-4-{[5-Fluoro-3,4-dihydro-2H-chromen-4-yl]oxy}-N,N,1,2-tetramethyl-1H-benzimidazole-6-carboxamide] | 240 |
| Cc1nc2c(OC3CCOc4cc(F)cc(F)c43)cc(C(=O)N(C)C)cc2n1C (racemic) [Example 5, 4-[(5,7-Difluoro-3,4-dihydro-2H-chromen-4-yl)oxy]-N,N,1,2-tetramethyl-1H-benzimidazole-6-carboxamide] | 90 |
| Cc1nc2c(OC3CCOc4cccc(F)c43)cc(C(=O)N(C)C)cc2n1C (racemic) [Example 9, 4-[(5-Fluoro-3,4-dihydro-2H-chromen-4-yl)oxy]-N,N,1,2-tetramethyl-1H-benzimidazole-6-carboxamide] | 960 |
| Cc1nc2c(OC3CCOc4cc(F)ccc43)cc(C(=O)N(C)C)cc2n1C (racemic) [Example 2, 4-[(7-Fluoro-3,4-dihydro-2H-chromen-4-yl)oxy]-N,N,1,2-tetramethyl-1H-benzimidazole-6-carboxamide] | 69 |
| Cc1nc2c(OC3CCOc4cc(F)ccc43)cc(C(=O)N(C)C)cc2n1C (single isomer, unassigned; (+)) [Example 4, (+)-4-[(7-Fluoro-3,4-dihydro-2H-chromen-4-yl)oxy]-N,N,1,2-tetramethyl-1H-benzimidazole-6-carboxamide] | 440 |
| Cc1nc2c(OC3CCOc4cc(F)cc(F)c43)cc(C(=O)N3CCC3)cc2n1C (racemic) [Example 22, 6-(Azetidin-1-ylcarbonyl)-4-[(5,7-difluoro-3,4-dihydro-2H-chromen-4-yl)oxy]-1,2-dimethyl-1H-benzimidazole] | 180 |
| Cc1nc2c(OC3CCOc4cccc(F)c43)cc(C(=O)N(C)C)cc2n1C (single isomer, unassigned; (-)) [Example 17, (−)-4-{[5-Fluoro-3,4-dihydro-2H-chromen-4-yl]oxy}-N,N,1,2-tetramethyl-1H-benzimidazole-6-carboxamide] | 340 |
| Cc1nc2c(OC3CCOc4cc(F)cc(F)c43)cc(C(=O)N3CCC3)cc2n1C (single isomer, unassigned; (+)) [Example 24, (+)-6-(Azetidin-1-ylcarbonyl)-4-[(5,7-difluoro-3,4-dihydro-2H-chromen-4yl)oxy]-1,2-dimethyl-1H-benzimidazole] | 620 |
| Cc1nc2c(OC3CCOc4cc(F)cc(F)c43)cc(C(=O)N(C)C)cc2n1C (single isomer, unassigned; (+)) [Example 7, (+)-4-[(5,7-Difluoro-3,4-dihydro-2H-chromen-4-yl)oxy]-N,N,1,2-tetramethyl-1H-benzimidazole-6-carboxamide] | 220 |
| Cc1nc2c(OC3CCOc4ccccc43)cc(C(=O)N3CCC[C@@H]3CO)cc2n1C (stereo partly drawn) [Example 14] | 980 |
| CC(=O)N1CCN(C(=O)c2cc(OC3CCOc4ccccc43)c3nc(C)n(C)c3c2)CC1 (stereo not drawn) [Example 16, 6-[(4-Acetylpiperazin-1-yl)carbonyl]-4-(3,4-dihydro-2H-chromen-4-yloxy)-1,2-dimethyl-1H-benzimidazole] | 140 |
| CNC(=O)c1cc(OC2CCOc3cc(F)cc(F)c32)c2nc(C)n(C)c2c1 (single isomer, unassigned; (+)) [Example 21, (+)-4-[(5,7-Difluoro-3,4-dihydro-2H-chromen-4-yl)oxy]-N,1,2-trimethyl-1H-benzimidazole-6-carboxamide] | 490 |

What follows are compounds tested on gastric acid secretion (assay: Inhibition of gastric acid secretion in the Heidenhain pouch dog). Conditions: histamine-stimulated (80 μg/kg/h) acid secretion, oral or intravenous bolus administration.
Assay type: in vivo, Beagle dogs
Procedure: Male Beagle dogs weighing 7-15 kg with Heidenhain pouch [Heidenhain R: Arch Ges Physiol. 1879; 19: 148-167] were used. The animals were allowed to recover from surgery for at least three weeks before the experiments. The animals were kept at a 12 hour light-dark rhythm, housed singly. They received standard food once daily at 11:00 a.m. and tap water ad libitum, and were fasted overnight prior to the experiment, with free access to water. Gastric juice samples were collected throughout the experiment by gravity drainage every 15 min. Acidity in the gastric juice was measured by titration to the end point of pH 7.0. Acid secretion was stimulated by a continuous intravenous infusion of histamine (80 μg/kg/h). Oral or intravenous bolus administration of the test compounds was done 90 minutes after commencement of the histamine infusion. The acid secretion was monitored after the administration. The activity was evaluated by the maximum inhibition relative to the corresponding control value.

| Compound | inhibitory activity (maximum inhibition of acid secretion relative to control) |
| --- | --- |
| Cc1nc2c(OC3CCOc4cc(F)cc(F)c43)cc(C(=O)N(C)C)cc2n1C (single isomer, unassigned; (-)) [Example 6, (−)-4-[(5,7-Difluoro-3,4-dihydro-2H-chromen-4-yl)oxy]-N,N,1,2-tetramethyl-1H-benzimidazole-6-carboxamide] | good inhibitory activity |

Reference: patent publication US7718809B2, “Chromane substituted benzimidazole derivatives as acid pump antagonists” (RaQualia Pharma Inc., priority 2005, dated 2010)
